Holding throughout (format): cell-based
Data set [1] relates to Pseudomonas aeruginosa PAE19-3. Particulars: PAE19-3. The essentials: (§1)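 Minimal inhibitory concentrations are measured following CLSI microdilution guidance in MH broth. Test concentrations run from 64 down to 0.03 mg/L in doubling steps, with a final bacterial load of (2-4) × 10^5 CFU/mL and 16-20 h incubation at 35-37°C.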
The test system of data set [2] is Escherichia coli ATCC BAA-2523. Particulars: ATCC BAA-2523. The essentials:
as §1

Data set [3] concerns Pseudomonas aeruginosa ATCC 27853. The conditions noted are these: ATCC 27853. The essentials:
as §1

Data set [4] relates to Escherichia coli ATCC BAA-2340 (KPC). The conditions noted are these: ATCC BAA-2340. The essentials:
as §1

The test system of data set [5] is Acinetobacter baumannii ABA19-1. The conditions noted are these: ABA19-1. The gist of the method: as §1
The subject of data set [6] is Klebsiella pneumoniae ATCC BAA-1705 (KPC). Particulars: ATCC BAA-1705. The gist of the method:
as §1

Data set [7] deals with Klebsiella pneumoniae KPN+19-15. Particulars: KPN+19-15. The essentials: as §1
In data set [8] the test system is Acinetobacter baumannii NCTC 13304 (OXA-27). The conditions noted are these: NCTC 13304. The gist of the method:
as §1

Data set [9] in a line: Nephrotoxicity assay: in vitro cytotoxicity of HK-2 cells by CCK-8 assay. The conditions noted are these: human, HK-2 cells (human renal), 72 h incubation with drug-containing medium. The essentials:
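HK-2 human renal cells in RPMI-1640 with 10% FBS were exposed to compounds at final 12.5–500 µg/mL for 72 h, then CCK-8 for 3 h and OD450 read. Viability was normalised to drug-free wells; IC50 came from logarithmic regression over three repeats, with polymyxin B as positive drug.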

Values after ≈ are worked out from the molar mass of the structure shown. Bridge positions count the residues as written; N and C are the ends. Square brackets hold non-standard residues; d marks the D form. Peptide text beside a SMILES is read from it. * marks the point of attachment. Dab(CH2SO3H) = N[C@@H](CCNCS(=O)(=O)O)C(=O)O; Heptanoyl(6-Me) = CC(C)CCCCC(=O)*; X1 = CC[C@H](C)CCCCC(=O)*; dDab = NCC[C@@H](N)C(=O)O; Heptanoyl = CCCCCCC(=O)*; Octanoyl = CCCCCCCC(=O)*; Orn = NCCC[C@H](N)C(=O)O; dDap = NC[C@@H](N)C(=O)O; Dab = NCC[C@H](N)C(=O)O; Dap = NC[C@H](N)C(=O)O

As to `CCCCCCCC(=O)N[C@@H](CCN)C(=O)N[C@H](C(=O)N[C@H](CO)C(=O)N[C@H]1CCNC(=O)[C@H]([C@@H](C)O)NC(=O)[C@H](CCN)NC(=O)[C@H](CCCN)NC(=O)[C@H]([C@@H](C)O)NC(=O)[C@@H](Cc2ccccc2)NC(=O)[C@H](CCN)NC1=O)[C@@H](C)O` [Compound 78, Octanoyl-Dab-Thr-D-Ser-ring(4-10)[Dab-Dab-D-Phe-Thr-Orn-Dab-Thr]] (Octanoyl-[Dab]T[dS][Dab][Dab][dF]T[Orn][Dab]T; lactam 4-C), the MIC (as a rule, the lowest concentration found to suppress growth) in [1] was 64 µg/mL (≈ 54.3 µM); in data set [2], ≤0.03 µg/mL; in data set [3] it was >64 µg/mL; in data set [4] it was ≤0.03 µg/mL; in data set [5], 0.06 µg/mL (≈ 0.0509 µM); in [6], 0.25 µg/mL (≈ 0.212 µM). For the same compound, the MIC in [7] was 0.5 µg/mL (≈ 0.424 µM); in data set [8], ≤0.03 µg/mL. Also, the IC50 (commonly the point on the concentration scale where inhibition reaches its midpoint) at 72 h in data set [9] was > 500 µg/mL.

As for `CC(C)CCCCC(=O)N[C@@H](CCN)C(=O)N[C@H](C(=O)N[C@@H](CN)C(=O)N[C@H]1CCNC(=O)[C@H]([C@@H](C)O)NC(=O)[C@H](CCNCS(=O)(=O)O)NC(=O)[C@H](CCN)NC(=O)[C@H]([C@@H](C)O)NC(=O)[C@@H](Cc2ccccc2)NC(=O)[C@H](CCN)NC1=O)[C@@H](C)O` [Compound 120, 6-methylheptanoyl-Dab-Thr-Dap-ring(4-10)[Dab-Dab-D-Phe-Thr-Dab-Dab(CH2SO3H)-Thr]] ({Heptanoyl(6-Me)}-[Dab]T[Dap][Dab][Dab][dF]T[Dab][Dab(CH2SO3H)]T; lactam 4-C), the MIC in [1] stood at 0.5 µg/mL (≈ 0.398 µM); in data set [2], 0.06 µg/mL (≈ 0.0477 µM); in data set [3] it was 0.25 µg/mL (≈ 0.199 µM); in data set [4] it was 0.06 µg/mL (≈ 0.0477 µM); in [5], 0.25 µg/mL (≈ 0.199 µM); in [6], 0.125 µg/mL (≈ 0.0994 µM). Moreover, the values for the MIC in data set [7] and in data set [8] were 0.125 µg/mL (≈ 0.0994 µM) and 0.06 µg/mL (≈ 0.0477 µM), respectively. Moreover, in [9], the IC50 at 72 h is > 500 µg/mL.

Take `CC(C)CCCCC(=O)N[C@@H](CN)C(=O)N[C@H](C(=O)N[C@H](CO)C(=O)N[C@H]1CCNC(=O)[C@H]([C@@H](C)O)NC(=O)[C@H](CCN)NC(=O)[C@H](CCN)NC(=O)[C@H]([C@@H](C)O)NC(=O)[C@@H](Cc2ccccc2)NC(=O)[C@H](CCN)NC1=O)[C@@H](C)O` [Compound 52, 6-methylheptanoyl-Dap-Thr-D-Ser-ring(4-10)[Dab-Dab-D-Phe-Thr-Dab-Dab-Thr]] ({Heptanoyl(6-Me)}-[Dap]T[dS][Dab][Dab][dF]T[Dab][Dab]T; lactam 4-C): the MIC in data set [1] is 4 µg/mL (≈ 3.48 µM); in [2], ≤0.03 µg/mL; in data set [3], 64 µg/mL (≈ 55.6 µM); in [4], ≤0.03 µg/mL; in [5] it was 0.25 µg/mL (≈ 0.217 µM); in data set [6] it was 0.25 µg/mL (≈ 0.217 µM). In addition, the results for the MIC in [7] and in data set [8] were 0.5 µg/mL (≈ 0.435 µM) and 0.25 µg/mL (≈ 0.217 µM), respectively. Also, in data set [9], the IC50 at 72 h was > 500 µg/mL.

As to `CCCCCCCC(=O)N[C@@H](CCN)C(=O)N[C@H](C(=O)N[C@@H](CN)C(=O)N[C@H]1CCNC(=O)[C@H]([C@@H](C)O)NC(=O)[C@H](CCN)NC(=O)[C@H](CCN)NC(=O)[C@H]([C@@H](C)O)NC(=O)[C@@H](Cc2ccccc2)NC(=O)[C@H](CCN)NC1=O)[C@@H](C)O` [Compound 8, Octanoyl-Dab-Thr-Dap-ring(4-10)[Dab-Dab-D-Phe-Thr-Dab-Dab-Thr]] (Octanoyl-[Dab]T[Dap][Dab][Dab][dF]T[Dab][Dab]T; lactam 4-C), the MIC in data set [1] is listed as 0.25 µg/mL (≈ 0.215 µM); in [2], ≤0.03 µg/mL; in [3], 0.125 µg/mL (≈ 0.107 µM); in data set [4] it was ≤0.03 µg/mL; in [5] it was ≤0.03 µg/mL; in [6], ≤0.03 µg/mL. Further, the MIC in data set [7] and in [8] was ≤0.03 µg/mL in each case. For the same compound, the IC50 at 72 h in data set [9] is > 500 µg/mL.

On to `CCCCCCC(=O)N[C@@H](CCN)C(=O)N[C@H](C(=O)N[C@H](CCN)C(=O)N[C@H]1CCNC(=O)[C@H]([C@@H](C)O)NC(=O)[C@H](CCN)NC(=O)[C@H](CCN)NC(=O)[C@H]([C@@H](C)O)NC(=O)[C@@H](Cc2ccccc2)NC(=O)[C@H](CCN)NC1=O)[C@@H](C)O` [Compound 14, Heptanoyl-Dab-Thr-D-Dab-ring(4-10)[Dab-Dab-D-Phe-Thr-Dab-Dab-Thr]] (Heptanoyl-[Dab]T[dDab][Dab][Dab][dF]T[Dab][Dab]T; lactam 4-C), for which the MIC in data set [1] was 2 µg/mL (≈ 1.72 µM); in data set [2], 0.03 µg/mL (≈ 0.0258 µM); in data set [3], 2 µg/mL (≈ 1.72 µM); in [4], 0.03 µg/mL (≈ 0.0258 µM); in [5], 0.03 µg/mL (≈ 0.0258 µM); in data set [6], 0.06 µg/mL (≈ 0.0516 µM). Further, the minimum inhibitory concentration (MIC) in data set [7] and in data set [8] was 0.03 µg/mL (≈ 0.0258 µM) each time. In [9], the IC50 at 72 h is > 500 µg/mL.

With `CC[C@H](C)CCCCC(=O)N[C@@H](CCN)C(=O)N[C@H](C(=O)N[C@H](CO)C(=O)N[C@H]1CCNC(=O)[C@H]([C@@H](C)O)NC(=O)[C@H](CCN)NC(=O)[C@H](CCN)NC(=O)[C@H]([C@@H](C)O)NC(=O)[C@@H](Cc2ccccc2)NC(=O)[C@H](CCCN)NC1=O)[C@@H](C)O` [Compound 66, (S)-6-methyloctanoyl-Dab-Thr-D-Ser-ring(4-10)[Dab-Orn-D-Phe-Thr-Dab-Dab-Thr]] (X1-[Dab]T[dS][Dab][Orn][dF]T[Dab][Dab]T; lactam 4-C), the MIC in [1] was 4 µg/mL (≈ 3.35 µM); in [2], 0.125 µg/mL (≈ 0.105 µM); in data set [3], 64 µg/mL (≈ 53.7 µM); in data set [4] it was 0.125 µg/mL (≈ 0.105 µM); in data set [5], 0.25 µg/mL (≈ 0.21 µM); in data set [6], 0.25 µg/mL (≈ 0.21 µM). For the same compound, the MIC in data set [7] was found to be 0.5 µg/mL (≈ 0.419 µM); in data set [8], 0.25 µg/mL (≈ 0.21 µM). The IC50 at 72 h in data set [9] was > 500 µg/mL.

As to `CC[C@H](C)CCCCC(=O)N[C@@H](CCN)C(=O)N[C@H](C(=O)N[C@H](CN)C(=O)N[C@H]1CCNC(=O)[C@H]([C@@H](C)O)NC(=O)[C@H](CCN)NC(=O)[C@H](CCN)NC(=O)[C@H]([C@@H](C)O)NC(=O)[C@H](Cc2ccccc2)NC(=O)[C@H](CCN)NC1=O)[C@@H](C)O` [Compound 101, (S)-6-methyloctanoyl-Dab-Thr-D-Dap-ring(4-10)[Dab-Dab-Phe-Thr-Dab-Dab-Thr]] (X1-[Dab]T[dDap][Dab][Dab]FT[Dab][Dab]T; lactam 4-C), the MIC in data set [1], in data set [2], in data set [3], in [4], in data set [5] and in data set [6] was >64 µg/mL in each case. The MIC in data set [7] and in [8] was >64 µg/mL each time. Besides, the IC50 at 72 h in data set [9] is > 500 µg/mL.
